{"source": "paper PMC5431190", "about": "“Investigation of cationicity and structure of pseudin-2 analogues for enhanced bacterial selectivity and anti-inflammatory activity” (Scientific Reports, 2017)", "molecules": {"B1": {"name": "Pseudin-2 (peptide)", "peptide": "GLNALKKVFQGIHEAIKLINNHVQ", "notes": "source: synthetic peptide (solid-phase, Fmoc; reversed-phase HPLC, purity >95%)"}}, "key": {"[1]": {"assay": "LPS neutralization (LAL assay)", "assay_type": "biochemical", "method": "LPS neutralization by the peptides were measured using LAL-QCL-1000^TM (Lonza, USA) kit using a modified protocol as described previously. The interaction between each peptide and FITC-LPS was monitored according to the change in fluorescence intensity (excitation = 480 nm, emission = 515 nm). Peptides and 0.5 μg/ml FITC-LPS were prepared in 10 mM phosphate buffer (pH 6.0). The binding between rhTLR4 (from R&D systems, Minneapolis, USA) or rhMD2 (R&D systems, Minneapolis, USA) and peptides was determined using the BLItz system (ForteBio, Menlo Park, CA)[53]. A Ni-NTA sensor was used to detect rhTLR4 and rhMD2 binding. Before the binding assay, the biosensor was hydrated for 10 min in PBS. An initial baseline of 15 s, loading for 60 s, baseline for 30 s, association for 60 s and dissociation for 60 s were used for measurement."}, "[2]": {"tested_on": "human red blood cells (hRBCs)", "assay": "Haemolytic activity", "assay_type": "cell-based", "conditions": "red cells of human, 1 h", "method": "Peptide-induced lysis of human red blood cells (hRBCs) was determined as follows. Fresh hRBCs were washed 2–3 times with phosphate-buffered saline (PBS) by centrifugation for 5 min at 2500 rpm at 4 °C. Peptides in PBS were incubated with 4% (v/v) hRBCs for 1 h at 37 °C. Samples were then centrifuged for 5 min at 1000 × g. The absorbance of the supernatant at 405 nm was used as a measure of haemolysis. As a positive control, 100% haemolysis was obtained by treating hRBCs with 0.1% Triton X-100."}, "[3]": {"tested_on": "Staphylococcus aureus KCTC 1621", "assay_type": "cell-based", "conditions": "KCTC 1621, 16 h", "text": "(§1) Four Gram-negative bacteria species (Escherichia coli KCTC 1682, Acinetobacter baumannii KCTC 2508, Pseudomonas aeruginosa KCTC 1637 and Salmonella typhimurium KCTC 1926) and three Gram-positive bacteria species (Staphylococcus aureus KCTC 1621, Bacillus subtilis KCTC 3028 and Staphylococcus epidermidis KCTC 1917) were procured from the Korean Collection for Type Cultures (KCTC). Multi-drug-resistant Gram-negative bacteria (Salmonella typhimurium CCARM 8003 and 8007, Escherichia coli CCARM 1229 and 1238, Pseudomonas aeruginosa CCARM 2002 and 2095 and Acinetobacter baumannii CCARM 12035 and 12036) were obtained from the Culture Collection of Antibiotic-Resistant Microbes (CCARM). To determine MICs, bacteria were cultured in Luria-Bertani (LB) medium for overnight at 37 °C. An aliquot of the culture was incubated in 1% peptone media at 37 °C until mid-log phase. 100 μl of serial 2-fold diluted peptides were treated in 96 well plates and added to 100 μl of 2 × 10^6 CFU/ml bacterial suspensions in 1% peptone media for 16 h at 37 °C."}, "[4]": {"tested_on": "Staphylococcus epidermidis KCTC 1917", "assay_type": "cell-based", "conditions": "KCTC 1917, 16 h", "text": "as §1"}, "[5]": {"tested_on": "Salmonella typhimurium CCARM 8003 (MDRST 8003)", "assay_type": "cell-based", "conditions": "multidrug-resistant strain; 1% peptone media, 16 h at 37 °C", "text": "as §1"}, "[6]": {"tested_on": "Gram-positive bacteria (S. aureus, B. subtilis, S. epidermidis)", "assay_type": "cell-based", "conditions": "16 h", "text": "as §1"}, "[7]": {"tested_on": "Salmonella typhimurium KCTC 1926", "assay_type": "cell-based", "conditions": "KCTC 1926, 16 h", "text": "as §1"}, "[8]": {"tested_on": "Salmonella typhimurium CCARM 8007 (MDRST 8007)", "assay_type": "cell-based", "conditions": "multidrug-resistant strain; 1% peptone media, 16 h at 37 °C", "text": "as §1"}, "[9]": {"tested_on": "Pseudomonas aeruginosa CCARM 2002 (MDRPA 2002)", "assay_type": "cell-based", "conditions": "multidrug-resistant strain; 1% peptone media, 16 h at 37 °C", "text": "as §1"}, "[10]": {"tested_on": "Bacillus subtilis KCTC 3028", "assay_type": "cell-based", "conditions": "KCTC 3028, 16 h", "text": "as §1"}, "[11]": {"tested_on": "Acinetobacter baumannii CCARM 12036 (MDRAB 12036)", "assay_type": "cell-based", "conditions": "multidrug-resistant strain; 1% peptone media, 16 h at 37 °C", "text": "as §1"}, "[12]": {"tested_on": "Escherichia coli CCARM 1238 (MDREC 1238)", "assay_type": "cell-based", "conditions": "multidrug-resistant strain; 1% peptone media, 16 h at 37 °C", "text": "as §1"}, "[13]": {"tested_on": "Acinetobacter baumannii CCARM 12035 (MDRAB 12035)", "assay_type": "cell-based", "conditions": "multidrug-resistant strain; 1% peptone media, 16 h at 37 °C", "text": "as §1"}, "[14]": {"tested_on": "Gram-negative bacteria (E. coli, A. baumannii, P. aeruginosa, S. typhimurium)", "assay_type": "cell-based", "conditions": "16 h", "text": "as §1"}, "[15]": {"tested_on": "Escherichia coli CCARM 1229 (MDREC 1229)", "assay_type": "cell-based", "conditions": "multidrug-resistant strain; 1% peptone media, 16 h at 37 °C", "text": "as §1"}, "[16]": {"tested_on": "Escherichia coli KCTC 1682", "assay_type": "cell-based", "conditions": "KCTC 1682, 16 h", "text": "as §1"}, "[17]": {"tested_on": "Pseudomonas aeruginosa KCTC 1637", "assay_type": "cell-based", "conditions": "KCTC 1637, 16 h", "text": "as §1"}, "[18]": {"tested_on": "Acinetobacter baumannii KCTC 2508", "assay_type": "cell-based", "conditions": "KCTC 2508, 16 h", "text": "as §1"}, "[19]": {"tested_on": "Pseudomonas aeruginosa CCARM 2095 (MDRPA 2095)", "assay_type": "cell-based", "conditions": "multidrug-resistant strain; 1% peptone media, 16 h at 37 °C", "text": "as §1"}, "[20]": {"tested_on": "S. aureus 3089(R) (MRSA 3089)", "assay_type": "cell-based, Staphylococcus aureus", "conditions": "multidrug-resistant strain; 1% peptone media, 16 h at 37 °C"}, "[21]": {"tested_on": "mouse bone marrow-derived dendritic cells", "conditions": "50 μM peptide, MTT, 18 h at 37 °C"}, "[22]": {"tested_on": "S. aureus 3126(R) (MRSA 3126)", "assay_type": "cell-based, Staphylococcus aureus", "conditions": "multidrug-resistant strain; 1% peptone media, 16 h at 37 °C"}, "[23]": {"tested_on": "S. aureus 3108(R) (MRSA 3108)", "assay_type": "cell-based, Staphylococcus aureus", "conditions": "multidrug-resistant strain; 1% peptone media, 16 h at 37 °C"}, "[24]": {"tested_on": "mouse macrophage RAW264.7 cells", "conditions": "50 μM peptide, MTT, 18 h at 37 °C"}, "[25]": {"biological_target": "T1, rhTLR4 (recombinant human Toll-like receptor 4) (human, UniProt O00206 24-631)", "T1 construct": "Toll-like receptor 4, recombinant human (rhTLR4), bought; No catalogue number is printed; source: bought: R&D systems, Minneapolis, USA", "T1 sequence (O00206 24-631)": "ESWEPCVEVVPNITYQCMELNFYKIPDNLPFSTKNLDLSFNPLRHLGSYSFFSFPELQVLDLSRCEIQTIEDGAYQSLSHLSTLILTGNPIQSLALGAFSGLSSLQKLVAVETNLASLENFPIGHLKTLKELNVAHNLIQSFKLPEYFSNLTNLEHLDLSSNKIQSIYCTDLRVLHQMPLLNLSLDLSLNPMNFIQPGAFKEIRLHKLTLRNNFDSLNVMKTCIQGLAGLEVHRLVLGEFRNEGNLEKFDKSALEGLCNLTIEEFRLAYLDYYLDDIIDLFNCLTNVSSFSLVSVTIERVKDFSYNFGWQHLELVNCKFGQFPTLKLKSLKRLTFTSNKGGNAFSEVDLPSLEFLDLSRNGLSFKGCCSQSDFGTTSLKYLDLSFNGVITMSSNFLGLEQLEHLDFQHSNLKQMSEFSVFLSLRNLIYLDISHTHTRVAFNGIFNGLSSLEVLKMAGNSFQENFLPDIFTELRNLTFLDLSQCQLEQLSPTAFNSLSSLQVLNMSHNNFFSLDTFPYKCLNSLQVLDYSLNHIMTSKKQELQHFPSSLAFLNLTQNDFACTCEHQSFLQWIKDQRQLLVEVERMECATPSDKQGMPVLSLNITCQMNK", "assay": "BLI; BLItz system (ForteBio); rhTLR4 loaded on a Ni-NTA sensor, various amounts of peptide applied; biosensor hydrated 10 min in PBS; baseline 15 s, loading 60 s, baseline 30 s, association 60 s, dissociation 60 s", "conditions": "both partners purified"}}, "note": "Residues, ends and D or L forms follow the SMILES beside them."}
{"molecule": "LL-37", "values": [{"measurement": "LPS neutralization (control peptide)", "setting": "[1]", "value": "high LPS neutralization"}]}
{"molecule": "CC[C@H](C)[C@H](NC(=O)CNC(=O)[C@H](CCC(N)=O)NC(=O)[C@H](Cc1ccccc1)NC(=O)[C@@H](NC(=O)[C@H](CCCCN)NC(=O)[C@H](CCCCN)NC(=O)[C@H](CC(C)C)NC(=O)[C@H](C)NC(=O)[C@H](CC(N)=O)NC(=O)[C@H](CC(C)C)NC(=O)CN)C(C)C)C(=O)N[C@@H](Cc1c[nH]cn1)C(=O)N[C@@H](CCC(=O)O)C(=O)N[C@@H](C)C(=O)N[C@H](C(=O)N[C@@H](CCCCN)C(=O)N[C@@H](CC(C)C)C(=O)N[C@H](C(=O)N[C@@H](CC(N)=O)C(=O)N[C@@H](CC(N)=O)C(=O)N[C@@H](Cc1c[nH]cn1)C(=O)N[C@H](C(=O)N[C@@H](CCC(N)=O)C(=O)O)C(C)C)[C@@H](C)CC)[C@@H](C)CC", "note": "[Ps, Pseudin-2] (H-GLNALKKVFQGIHEAIKLINNHVQ-OH)", "values": [{"measurement": "MHC (minimal peptide concentration that produces haemolysis)", "setting": "[2]", "value": 25, "unit": "µM"}, {"measurement": "haemolysis at 100 μM", "setting": "[2]; 100", "value": "approximately 23%"}, {"measurement": "MIC, S. aureus", "setting": "[3]", "value": 4, "unit": "µM"}, {"measurement": "MIC, S. epidermidis", "setting": "[4]", "value": 4, "unit": "µM"}, {"measurement": "MIC, MDRST 8003", "setting": "[5]", "value": 4, "unit": "µM"}, {"measurement": "Average MIC, Gram-positive", "setting": "[6]", "value": 4, "unit": "µM"}, {"measurement": "MIC, S. typhimurium", "setting": "[7]", "value": 2, "unit": "µM"}, {"measurement": "MIC, MDRST 8007", "setting": "[8]", "value": 2, "unit": "µM"}, {"measurement": "MIC, MDRPA 2002", "setting": "[9]", "value": 2, "unit": "µM"}, {"measurement": "MIC, B. subtilis", "setting": "[10]", "value": 4, "unit": "µM"}, {"measurement": "MIC, MDRAB 12036", "setting": "[11]", "value": 2, "unit": "µM"}, {"measurement": "MIC, MDREC 1238", "setting": "[12]", "value": 1, "unit": "µM"}, {"measurement": "MIC, MDRAB 12035", "setting": "[13]", "value": 1, "unit": "µM"}, {"measurement": "Average MIC, Gram-negative", "setting": "[14]", "value": 1.5, "unit": "µM"}, {"measurement": "MIC, MDREC 1229", "setting": "[15]", "value": 2, "unit": "µM"}, {"measurement": "MIC, E. coli", "setting": "[16]", "value": 1, "unit": "µM"}, {"measurement": "MIC, P. aeruginosa", "setting": "[17]", "value": 2, "unit": "µM"}, {"measurement": "MIC, A. baumannii", "setting": "[18]", "value": 1, "unit": "µM"}, {"measurement": "MIC, MDRPA 2095", "setting": "[19]", "value": 2, "unit": "µM"}, {"measurement": "MIC, MRSA 3089", "setting": "[20]", "value": 4, "unit": "µM"}, {"measurement": "survival of dendritic cells", "setting": "[21]", "value": 44, "unit": "%"}, {"measurement": "MIC, MRSA 3126", "setting": "[22]", "value": 4, "unit": "µM"}, {"measurement": "MIC, MRSA 3108", "setting": "[23]", "value": 4, "unit": "µM"}, {"measurement": "survival of RAW264.7 cells", "setting": "[24]", "value": 56, "unit": "%"}]}
{"molecule": "B1", "values": [{"measurement": "Kd", "setting": "[25]", "value": 800, "unit": "nM"}]}
